Measured values from patent US20240092835A1, “NOVEL PEPTIDES CAPABLE OF ALTERING NK CELL ACTIVITY” (Massachusetts Institute of Technology, priority 2022, published 2024).

Experiments:
NKG2A+/NKG2C− NK cells = test: NK cell activation markers in NKG2A+/NKG2C- NK cells incubated with peptide and K562 expressing HLA-E (inhibition); type: cell-based, human; details: for percentage of CCL3+ NK cells / percentage of CD107a+ NK cells / percentage of IFNG+ NK cells / percentage of TNF+ NK cells: NKG2A+/NKG2C- NK cells, K562/HLA-E
Experimental: (§1) A human immortalized myelogenous leukemia cell line (K562), which expresses HLA-E was incubated with novel peptides (Table 1) derived from the human proteome or human cytomegalovirus proteome. […] Controls assessments were also performed using NKG2A−/NKG2C− cells (Tables 10-13). Inhibition was indicated by a decrease in percent cells positive for cell surface markers, while activation was indicated by an increase in percent cells positive for cell surface markers.

NKG2A−/NKG2C− NK cells = test: NK cell activation markers in control NKG2A-/NKG2C- NK cells incubated with peptide and K562 expressing HLA-E; type: cell-based, human
Experimental: as §1

HLA-E = target: T1, HLA-E (Homo sapiens, UniProt P13747); test: HLA-E surface stabilization assay with RMA-S/HLA-E cells; type: cell-based; details: 30 μM peptide, 16 hours; for HLA-E surface expression stability (GeoMFI): anti-HLA-E antibody
T1 construct: expressed in transfected cells; host or cells: RMA-S/HLA-E cells (antigen processing-defective lymphoma cell line)
T1 sequence (P13747 22-358): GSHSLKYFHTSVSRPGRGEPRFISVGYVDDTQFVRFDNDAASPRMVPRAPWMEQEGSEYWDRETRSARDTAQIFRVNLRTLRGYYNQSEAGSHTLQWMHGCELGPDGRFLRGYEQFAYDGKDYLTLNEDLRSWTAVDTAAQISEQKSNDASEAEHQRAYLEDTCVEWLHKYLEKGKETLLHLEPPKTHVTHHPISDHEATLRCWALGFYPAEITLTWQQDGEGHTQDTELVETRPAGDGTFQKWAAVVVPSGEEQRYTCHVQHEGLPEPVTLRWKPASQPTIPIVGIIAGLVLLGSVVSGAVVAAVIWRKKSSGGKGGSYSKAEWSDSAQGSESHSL
T1 sequence (P61769 21-119 partner): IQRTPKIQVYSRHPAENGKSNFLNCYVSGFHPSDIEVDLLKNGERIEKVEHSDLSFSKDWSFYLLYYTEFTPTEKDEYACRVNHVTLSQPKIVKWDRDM
Experimental: HLA-E surface expression was assessed by measuring geometric mean fluorescence intensity (GeoMFI) in RMA-S cells following immunofluorescence staining with an anti-HLA-E antibody (Table 14). Increased GeoMFI was indicative of increased HLA-E surface expression stability following novel peptide exposures (FIG. 3).

NKG2A−/NKG2C+ NK cells = test: NK cell activation markers in NKG2A-/NKG2C+ NK cells incubated with peptide and K562 expressing HLA-E (activation); type: cell-based, human; details: for effect on NKG2A−/NKG2C+ NK cell activation (in words): K562 expressing HLA-E, CD107a, IFNG, TNF, CCL3; for percentage of CCL3+ NK cells / percentage of CD107+ NK cells / percentage of IFNG+ NK cells / percentage of TNF+ NK cells: NKG2A-/NKG2C+ NK cells, K562/HLA-E
Experimental: as §1

VLPHRTQFL [CMV1, novel CMV-derived peptide UL120 72-80, Merlin]
effect on NKG2A+/NKG2C− NK cell inhibition (in words) (NKG2A+/NKG2C− NK cells; K562 expressing HLA-E, CD107a, IFNG, TNF, CCL3): strong inhibitory | percentage of CCL3+ NK cells (NKG2A+/NKG2C− NK cells; Trial 1): 3.55% | percentage of CD107a+ NK cells (NKG2A+/NKG2C− NK cells; Trial 1): 2.12% | percentage of IFNG+ NK cells (NKG2A+/NKG2C− NK cells; Trial 1): 0.46% | percentage of TNF+ NK cells (NKG2A+/NKG2C− NK cells; Trial 1): 0.27% | percentage of CCL3+ NK cells (NKG2A+/NKG2C− NK cells; Trial 2): 7.82% | percentage of CD107a+ NK cells (NKG2A+/NKG2C− NK cells; Trial 2): 3.42% | percentage of IFNG+ NK cells (NKG2A+/NKG2C− NK cells; Trial 2): 1.08% | percentage of TNF+ NK cells (NKG2A+/NKG2C− NK cells; Trial 2): 0.39% | percentage of CCL3+ NK cells (NKG2A+/NKG2C− NK cells; Trial 3): 7.91% | percentage of CD107a+ NK cells (NKG2A+/NKG2C− NK cells; Trial 3): 4.2% | percentage of IFNG+ NK cells (NKG2A+/NKG2C− NK cells; Trial 3): 2.52% | percentage of TNF+ NK cells (NKG2A+/NKG2C− NK cells; Trial 3): 1.09% | percentage of CCL3+ NK cells (NKG2A+/NKG2C− NK cells; Trial 4): 3.5% | percentage of CD107a+ NK cells (NKG2A+/NKG2C− NK cells; Trial 4): 3.15% | percentage of IFNG+ NK cells (NKG2A+/NKG2C− NK cells; Trial 4): 0.93% | percentage of TNF+ NK cells (NKG2A+/NKG2C− NK cells; Trial 4): 0.7% | percentage of CCL3+ NK cells (NKG2A+/NKG2C− NK cells; Trial 5): 14.5% | percentage of CD107a+ NK cells (NKG2A+/NKG2C− NK cells; Trial 5): 3.92% | percentage of IFNG+ NK cells (NKG2A+/NKG2C− NK cells; Trial 5): 1.35% | percentage of TNF+ NK cells (NKG2A+/NKG2C− NK cells; Trial 5): 0.82% | percentage of CCL3+ NK cells (NKG2A+/NKG2C− NK cells; Trial 6): 3.86% | percentage of CD107a+ NK cells (NKG2A+/NKG2C− NK cells; Trial 6): 2.27% | percentage of IFNG+ NK cells (NKG2A+/NKG2C− NK cells; Trial 6): 0.82% | percentage of TNF+ NK cells (NKG2A+/NKG2C− NK cells; Trial 6): 0.34% | percentage CCL3+ NK cells (NKG2A−/NKG2C− NK cells; Trial 1): 29.9% | percentage CD107+ NK cells (NKG2A−/NKG2C− NK cells; Trial 1): 21.4% | percentage TNF+ NK cells (NKG2A−/NKG2C− NK cells; Trial 1): 2.62% | percentage of IFNG+ NK cells (NKG2A−/NKG2C− NK cells; Trial 1): 13.5% | percentage CCL3+ NK cells (NKG2A−/NKG2C− NK cells; Trial 2): 52.4% | percentage CD107+ NK cells (NKG2A−/NKG2C− NK cells; Trial 2): 32.5% | percentage TNF+ NK cells (NKG2A−/NKG2C− NK cells; Trial 2): 9.43% | percentage of IFNG+ NK cells (NKG2A−/NKG2C− NK cells; Trial 2): 27.7% | percentage CCL3+ NK cells (NKG2A−/NKG2C− NK cells; Trial 3): 47.3% | percentage CD107+ NK cells (NKG2A−/NKG2C− NK cells; Trial 3): 41.9% | percentage TNF+ NK cells (NKG2A−/NKG2C− NK cells; Trial 3): 13.6% | percentage of IFNG+ NK cells (NKG2A−/NKG2C− NK cells; Trial 3): 36.7% | percentage CCL3+ NK cells (NKG2A−/NKG2C− NK cells; Trial 4): 27.2% | percentage CD107+ NK cells (NKG2A−/NKG2C− NK cells; Trial 4): 25.7% | percentage TNF+ NK cells (NKG2A−/NKG2C− NK cells; Trial 4): 8.63% | percentage of IFNG+ NK cells (NKG2A−/NKG2C− NK cells; Trial 4): 17.4% | percentage CCL3+ NK cells (NKG2A−/NKG2C− NK cells; Trial 5): 26.6% | percentage CD107+ NK cells (NKG2A−/NKG2C− NK cells; Trial 5): 18.6% | percentage TNF+ NK cells (NKG2A−/NKG2C− NK cells; Trial 5): 6.68% | percentage of IFNG+ NK cells (NKG2A−/NKG2C− NK cells; Trial 5): 14.6% | percentage CCL3+ NK cells (NKG2A−/NKG2C− NK cells; Trial 6): 19.1% | percentage CD107+ NK cells (NKG2A−/NKG2C− NK cells; Trial 6): 14.5% | percentage TNF+ NK cells (NKG2A−/NKG2C− NK cells; Trial 6): 2.86% | percentage of IFNG+ NK cells (NKG2A−/NKG2C− NK cells; Trial 6): 8.57% | HLA-E surface expression stability (GeoMFI) (HLA-E; Trial 1): 2140 GeoMFI | HLA-E surface expression stability (GeoMFI) (HLA-E; Trial 2): 1714 GeoMFI | HLA-E surface expression stability (GeoMFI) (HLA-E; Trial 3): 2014 GeoMFI | HLA-E surface expression stability (GeoMFI) (HLA-E; Trial 4): 2421 GeoMFI | HLA-E surface expression stabilization strength, approximate GeoMFI (HLA-E; approximate value): approximately 2×10^3 GeoMFI | effect on NKG2A−/NKG2C+ NK cell activation (in words) (NKG2A−/NKG2C+ NK cells): strong inhibitory and activating effects | effect on NKG2A−/NKG2C+ NK cell activation (in words) (NKG2A−/NKG2C+ NK cells; listed as SEQ ID NO. 15): strong activating effects | percentage of CCL3+ NK cells (NKG2A−/NKG2C+ NK cells; Trial 1): 80.1% | percentage of CD107+ NK cells (NKG2A−/NKG2C+ NK cells; Trial 1): 77.3% | percentage of IFNG+ NK cells (NKG2A−/NKG2C+ NK cells; Trial 1): 66.3% | percentage of TNF+ NK cells (NKG2A−/NKG2C+ NK cells; Trial 1): 53.3% | percentage of CCL3+ NK cells (NKG2A−/NKG2C+ NK cells; Trial 2): 90.4% | percentage of CD107+ NK cells (NKG2A−/NKG2C+ NK cells; Trial 2): 87.2% | percentage of IFNG+ NK cells (NKG2A−/NKG2C+ NK cells; Trial 2): 82.8% | percentage of TNF+ NK cells (NKG2A−/NKG2C+ NK cells; Trial 2): 76.1% | percentage of CCL3+ NK cells (NKG2A−/NKG2C+ NK cells; Trial 3): 86.5% | percentage of CD107+ NK cells (NKG2A−/NKG2C+ NK cells; Trial 3): 86.2% | percentage of IFNG+ NK cells (NKG2A−/NKG2C+ NK cells; Trial 3): 78.5% | percentage of TNF+ NK cells (NKG2A−/NKG2C+ NK cells; Trial 3): 68.8% | percentage of CCL3+ NK cells (NKG2A−/NKG2C+ NK cells; Trial 4): 67.5% | percentage of CD107+ NK cells (NKG2A−/NKG2C+ NK cells; Trial 4): 67.3% | percentage of IFNG+ NK cells (NKG2A−/NKG2C+ NK cells; Trial 4): 58.2% | percentage of TNF+ NK cells (NKG2A−/NKG2C+ NK cells; Trial 4): 51% | percentage of CCL3+ NK cells (NKG2A−/NKG2C+ NK cells; Trial 5): 78.1% | percentage of CD107+ NK cells (NKG2A−/NKG2C+ NK cells; Trial 5): 76.9% | percentage of IFNG+ NK cells (NKG2A−/NKG2C+ NK cells; Trial 5): 69.5% | percentage of TNF+ NK cells (NKG2A−/NKG2C+ NK cells; Trial 5): 66% | percentage of CCL3+ NK cells (NKG2A−/NKG2C+ NK cells; Trial 6): 58.3% | percentage of CD107+ NK cells (NKG2A−/NKG2C+ NK cells; Trial 6): 53.4% | percentage of IFNG+ NK cells (NKG2A−/NKG2C+ NK cells; Trial 6): 42.5% | percentage of TNF+ NK cells (NKG2A−/NKG2C+ NK cells; Trial 6): 33.3%
